In patent US8673929B2, “4,6-di- and 2,4,6-trisubstituted quinazoline derivatives and pharmaceutical compositions useful for treating viral infections” (priority 2006, dated 2014):

What was measured:
[1] = CC50 assay in the anti-HCV replicon assay (CellTiter-Glo); type: cell-based, human; details: human, Huh-7 hepatoma cells harbouring an HCV replicon; Huh-7 HCV replicon cells, 3 days incubation, CellTiter-Glo luminescence
How it was run: (§1)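 Huh-7 cells harbouring an HCV replicon (6000/well) incubated 3 days at 37° C with 3-fold serially diluted compound (0.5% DMSO final where used). EC50 from luciferase luminescence of lysed cells; CC50 from CellTiter-Glo luminescence in parallel plates.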

HCV replicon = experiment: Anti-HCV replicon assay, EC50 (luciferase readout); type: cell-based; details: Hepatitis C virus, 72 h; Huh-7 HCV replicon cells, 3 days incubation, luciferase luminescence
How it was run: as §1

SMILES	CC50 at 3 days [1] [µM]	EC50 (HCV replicon) [µM]
CC(C)Oc1nc(N)nc2ccc(-c3ccc(C(=O)NC4=NCCS4)cc3)cc12 [Example 181, 4-(2-Amino-4-isopropoxy-quinazolin-6-yl)-N-(4,5-dihydro-thiazol-2-yl)-benzamide]	10 to 20	0.3 to 1
CNC(=O)c1ccc(-c2ccc3nc(N)nc(OC(C)C)c3c2)cc1Cl [Example 182, 4-(2-Amino-4-isopropoxy-quinazolin-6-yl)-2-chloro-N-methyl-benzamide]	> 20	< 0.3
CC(C)Oc1nc(N)nc2ccc(-c3ccc(C(=O)NC4CC4)c(Cl)c3)cc12 [Example 183, 4-(2-Amino-4-isopropoxy-quinazolin-6-yl)-2-chloro-N-cyclopropyl-benzamide]	> 20	0.3 to 1
CC(C)Oc1nc(N)nc2ccc(-c3cccc(O)c3)cc12 [Example 184, 3-(2-Amino-4-isopropoxy-quinazolin-6-yl)-phenol]	< 10	0.3 to 1
CC(C)Oc1nc(N)nc2ccc(-c3ccc(C(=O)NC4CC4)cc3)cc12 [Example 185, 4-(2-Amino-4-isopropoxy-quinazolin-6-yl)-N-cyclopropyl-benzamide]	< 10	< 0.3
CNC(=O)c1cccc(-c2ccc3nc(N)nc(OC(C)C)c3c2)c1 [Example 186, 3-(2-Amino-4-isopropoxy-quinazolin-6-yl)-N-methyl-benzamide]	10 to 20	0.3 to 1
CCOc1nc(N)nc2ccc(-c3ccc(-c4nnc(C)o4)cc3)cc12 [Example 187, 4-Ethoxy-6-[4-(5-methyl-[1,3,4]oxadiazol-2-yl)-phenyl]-quinazolin-2-ylamine]	> 20	1 to 10
CC(C)CNC(=O)c1ccc(-c2ccc3nc(N)nc(OCCO)c3c2)cc1 [Example 188, 4-[2-Amino-4-(2-hydroxy-ethoxy)-quinazolin-6-yl]-N-isobutyl-benzamide]	> 20	1 to 10
Nc1nc(OCCO)c2cc(-c3ccc(C(=O)NC4CCCC4)cc3)ccc2n1 [Example 189, 4-[2-Amino-4-(2-hydroxy-ethoxy)-quinazolin-6-yl]-N-cyclopentyl-benzamide]	> 20	1 to 10
CC(C)NC(=O)c1ccc(-c2ccc3nc(N)nc(OCCO)c3c2)cc1 [Example 190, 4-[2-Amino-4-(2-hydroxy-ethoxy)-quinazolin-6-yl]-N-isopropyl-benzamide]	> 20	1 to 10
CONC(=O)c1ccc(-c2ccc3nc(N)nc(OCCO)c3c2)cc1 [Example 191, 4-[2-Amino-4-(2-hydroxy-ethoxy)-quinazolin-6-yl]-N-methoxy-benzamide]	> 20	1 to 10
Nc1nc(OCCO)c2cc(-c3ccc(C(=O)N4CCSC4)cc3)ccc2n1 [Example 192, {4-[2-Amino-4-(2-hydroxy-ethoxy)-quinazolin-6-yl]-phenyl}-thiazolidin-3-yl-methanone]	> 20	1 to 10
Nc1nc(OCCO)c2cc(-c3ccc(O)cc3)ccc2n1 [Example 193, 4-[2-Amino-4-(2-hydroxy-ethoxy)-quinazolin-6-yl]-phenol]	> 20	1 to 10
Nc1nc(OCCO)c2cc(-c3cccc(O)c3)ccc2n1 [Example 194, 3-[2-Amino-4-(2-hydroxy-ethoxy)-quinazolin-6-yl]-phenol]	10 to 20	1 to 10
Nc1nc(OCCO)c2cc(-c3ccc(C(=O)NC4CC4)cc3)ccc2n1 [Example 195, 4-[2-Amino-4-(2-hydroxy-ethoxy)-quinazolin-6-yl]-N-cyclopropyl-benzamide]	> 20	1 to 10
Nc1nc(OCCF)c2cc(-c3ccc(C(=O)N4CCCCC4)cc3)ccc2n1 [Example 196, {4-[2-Amino-4-(2-fluoro-ethoxy)-quinazolin-6-yl]-phenyl}-piperidin-1-yl-methanone]	> 20	1 to 10
Nc1nc(OCCF)c2cc(-c3ccc(C(=O)NCc4ccccc4)cc3)ccc2n1 [Example 197, 4-[2-Amino-4-(2-fluoro-ethoxy)-quinazolin-6-yl]-N-benzyl-benzamide]	10 to 20	1 to 10
CC(C)CNC(=O)c1ccc(-c2ccc3nc(N)nc(OCCF)c3c2)cc1 [Example 198, 4-[2-Amino-4-(2-fluoro-ethoxy)-quinazolin-6-yl]-N-isobutyl-benzamide]	10 to 20	1 to 10
CCCCNC(=O)c1ccc(-c2ccc3nc(N)nc(OCCF)c3c2)cc1 [Example 199, 4-[2-Amino-4-(2-fluoro-ethoxy)-quinazolin-6-yl]-N-butyl-benzamide]	> 20	1 to 10
CC(C)(C)NC(=O)c1ccc(-c2ccc3nc(N)nc(OCCF)c3c2)cc1 [Example 200, 4-[2-Amino-4-(2-fluoro-ethoxy)-quinazolin-6-yl]-N-tert-butyl-benzamide]	> 20	1 to 10
Nc1nc(OCCF)c2cc(-c3ccc(C(=O)NC4CCCC4)cc3)ccc2n1 [Example 201, 4-[2-Amino-4-(2-fluoro-ethoxy)-quinazolin-6-yl]-N-cyclopentyl-benzamide]	10 to 20	1 to 10
CC(C)NC(=O)c1ccc(-c2ccc3nc(N)nc(OCCF)c3c2)cc1 [Example 202, 4-[2-Amino-4-(2-fluoro-ethoxy)-quinazolin-6-yl]-N-isopropyl-benzamide]	> 20	1 to 10
CONC(=O)c1ccc(-c2ccc3nc(N)nc(OCCF)c3c2)cc1 [Example 203, 4-[2-Amino-4-(2-fluoro-ethoxy)-quinazolin-6-yl]-N-methoxy-benzamide]	> 20	1 to 10
Nc1nc(OCCF)c2cc(-c3ccc(C(=O)N4CCSC4)cc3)ccc2n1 [Example 204, {4-[2-Amino-4-(2-fluoro-ethoxy)-quinazolin-6-yl]-phenyl}-thiazolidin-3-yl-methanone]	> 20	1 to 10
Nc1nc(OCCF)c2cc(-c3ccc(C(=O)N4CCSCC4)cc3)ccc2n1 [Example 205, {4-[2-Amino-4-(2-fluoro-ethoxy)-quinazolin-6-yl]-phenyl}-thiomorpholin-4-yl-methanone]	> 20	1 to 10
Nc1nc(OCCF)c2cc(-c3ccc(C(=O)NC4=NCCS4)cc3)ccc2n1 [Example 206, 4-[2-Amino-4-(2-fluoro-ethoxy)-quinazolin-6-yl]-N-(4,5-dihydro-thiazol-2-yl)-benzamide]	> 20	1 to 10
CNC(=O)c1ccc(-c2ccc3nc(N)nc(OCCF)c3c2)cc1Cl [Example 207, 4-[2-Amino-4-(2-fluoro-ethoxy)-quinazolin-6-yl]-2-chloro-N-methyl-benzamide]	> 20	1 to 10
Nc1nc(OCCF)c2cc(-c3ccc(C(=O)NC4CC4)c(Cl)c3)ccc2n1 [Example 208, 4-[2-Amino-4-(2-fluoro-ethoxy)-quinazolin-6-yl]-2-chloro-N-cyclopropyl-benzamide]	> 20	1 to 10
Nc1nc(OCCF)c2cc(-c3ccc(O)cc3)ccc2n1 [Example 209, 4-[2-Amino-4-(2-fluoro-ethoxy)-quinazolin-6-yl]-phenol]	> 20	1 to 10
